Data as given in US9580437B2, “Triazolopyrimidine compounds and uses thereof” (Novartis AG, priority 2014, dated 2017).
pIC50: −log10 of the molar value.

Columns and labels:
[1] = biological target: wild type PRC2 (wtPRC2) complex (Homo sapiens (Human), UniProt O75530); experiment: EED LC-MS assay; type: biochemical; conditions: read-out: (b) IC50 EED LC-MS Qualified
Experimental: A 6 μL solution of 3 μM of the peptide substrate H3K27Me0 (histone H3[21-44]-biotin) in reaction buffer was added to initiate each reaction. […] ELISA (H3K27 Methylation) Assay

[2] = biological target: EED (1-441)-His protein (Homo sapiens (Human), UniProt O75530); experiment: EED-H3K27Me3 peptide competition binding assay by AlphaScreen; conditions: read-out: (a) IC50 EED Alphascreen binding Qualified
Text: EED-H3K27Me3 peptide competition binding assay by AlphaScreen (α-screen)

Sequence of wild type PRC2 (wtPRC2) complex (O75530 whole entry): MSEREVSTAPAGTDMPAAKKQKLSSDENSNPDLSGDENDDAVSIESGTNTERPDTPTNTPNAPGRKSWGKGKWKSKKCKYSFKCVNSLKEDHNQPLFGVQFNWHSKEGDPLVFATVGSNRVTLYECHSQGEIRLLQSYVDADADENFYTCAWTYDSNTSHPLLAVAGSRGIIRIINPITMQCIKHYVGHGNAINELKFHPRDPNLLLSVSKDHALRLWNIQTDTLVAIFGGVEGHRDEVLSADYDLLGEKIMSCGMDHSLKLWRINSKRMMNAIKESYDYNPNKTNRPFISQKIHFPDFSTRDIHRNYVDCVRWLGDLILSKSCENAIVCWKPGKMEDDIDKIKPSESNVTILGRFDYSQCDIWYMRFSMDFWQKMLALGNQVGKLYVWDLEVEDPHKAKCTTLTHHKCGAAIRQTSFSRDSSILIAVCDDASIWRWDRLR
Sequence of wild type PRC2 (wtPRC2) complex (Q15910 whole entry partner): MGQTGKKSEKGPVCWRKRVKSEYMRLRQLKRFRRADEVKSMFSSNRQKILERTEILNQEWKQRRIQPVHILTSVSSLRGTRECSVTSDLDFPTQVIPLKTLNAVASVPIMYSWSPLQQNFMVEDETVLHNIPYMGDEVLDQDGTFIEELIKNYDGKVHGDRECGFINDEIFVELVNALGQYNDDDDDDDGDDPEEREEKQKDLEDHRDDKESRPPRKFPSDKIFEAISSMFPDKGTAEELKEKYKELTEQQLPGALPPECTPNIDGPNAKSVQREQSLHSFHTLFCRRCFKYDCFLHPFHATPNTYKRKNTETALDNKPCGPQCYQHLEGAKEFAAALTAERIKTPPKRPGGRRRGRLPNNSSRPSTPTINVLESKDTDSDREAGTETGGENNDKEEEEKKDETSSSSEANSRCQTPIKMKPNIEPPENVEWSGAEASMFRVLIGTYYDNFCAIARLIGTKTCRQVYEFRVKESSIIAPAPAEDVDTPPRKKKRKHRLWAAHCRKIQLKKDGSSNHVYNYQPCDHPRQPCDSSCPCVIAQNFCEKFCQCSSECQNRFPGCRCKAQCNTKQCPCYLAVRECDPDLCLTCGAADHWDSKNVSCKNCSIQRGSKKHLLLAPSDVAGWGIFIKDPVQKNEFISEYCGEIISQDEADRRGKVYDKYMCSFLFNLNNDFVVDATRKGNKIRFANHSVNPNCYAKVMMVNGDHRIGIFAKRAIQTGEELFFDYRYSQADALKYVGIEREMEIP
Sequence of wild type PRC2 (wtPRC2) complex (Q15022 whole entry partner): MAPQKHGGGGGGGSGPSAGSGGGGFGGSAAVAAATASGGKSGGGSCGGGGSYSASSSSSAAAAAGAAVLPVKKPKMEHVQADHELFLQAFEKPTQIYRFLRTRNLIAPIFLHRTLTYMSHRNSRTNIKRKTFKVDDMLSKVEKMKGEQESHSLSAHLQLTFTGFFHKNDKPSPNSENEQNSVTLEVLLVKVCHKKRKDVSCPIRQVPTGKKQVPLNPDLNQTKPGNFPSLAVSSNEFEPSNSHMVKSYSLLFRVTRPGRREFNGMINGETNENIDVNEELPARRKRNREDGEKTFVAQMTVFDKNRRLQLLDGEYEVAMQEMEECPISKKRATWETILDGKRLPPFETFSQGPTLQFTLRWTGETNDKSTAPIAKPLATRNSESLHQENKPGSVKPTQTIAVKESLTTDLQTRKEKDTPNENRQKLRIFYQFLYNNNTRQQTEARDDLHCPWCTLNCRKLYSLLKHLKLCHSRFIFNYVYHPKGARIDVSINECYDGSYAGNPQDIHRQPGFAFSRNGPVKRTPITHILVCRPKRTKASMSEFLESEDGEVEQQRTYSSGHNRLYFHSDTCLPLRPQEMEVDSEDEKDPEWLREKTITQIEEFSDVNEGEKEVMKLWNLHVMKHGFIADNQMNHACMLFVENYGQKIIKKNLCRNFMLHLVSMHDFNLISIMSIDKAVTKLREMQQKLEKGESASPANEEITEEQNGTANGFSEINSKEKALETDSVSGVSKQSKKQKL
Sequence of EED (1-441)-His protein (O75530 whole entry): as the sequence (O75530 whole entry) above

Structure (SMILES): CS(=O)(=O)c1cccc(-c2cnc(NCc3cccc4c3CCO4)n3cnnc23)c1 [Example 27, N-((2,3-dihydrobenzofuran-4-yl)methyl)-8-(3-(methylsulfonyl)phenyl)-[1,2,4]triazolo[4,3-c]pyrimidin-5-amine]
- pIC50 [1]: 7.33
- pIC50 [2]: 7.70

Structure (SMILES): CN(C)C(=O)c1ccc(-c2cnc(NCc3c(F)ccc4c3CCO4)n3cnnc23)cc1 [Example 55, 4-(5-(((5-fluoro-2,3-dihydrobenzofuran-4-yl)methyl)amino)-[1,2,4]triazolo[4,3-c]pyrimidin-8-yl)-N,N-dimethylbenzamide]
- pIC50 [1]: 7.50
- pIC50 [2]: 7.68

Structure (SMILES): Cc1c(-c2cnc(NCc3c(F)ccc4c3CCO4)n3cnnc23)ccnc1F [Example 180, N-((5-fluoro-2,3-dihydrobenzofuran-4-yl)methyl)-8-(2-fluoro-3-methylpyridin-4-yl)-[1,2,4]triazolo[4,3-c]pyrimidin-5-amine]
- pIC50 [1]: 8.10
- pIC50 [2]: 8.14

Structure (SMILES): Cc1nn(C(C)C)c(C)c1-c1cnc(NCc2cccc3c2CCO3)n2cnnc12 [Example 153, N-((2,3-dihydrobenzofuran-4-yl)methyl)-8-(1-isopropyl-3,5-dimethyl-1H-pyrazol-4-yl)-[1,2,4]triazolo[4,3-c]pyrimidin-5-amine]
- pIC50 [1]: 7.83
- pIC50 [2]: 8.11

Structure (SMILES): Fc1ccc2c(c1CNc1ncc(-n3ccnc3)c3nncn13)CCO2 [Example 240, N-((5-fluoro-2,3-dihydrobenzofuran-4-yl)methyl)-8-(1H-imidazol-1-yl)-[1,2,4]triazolo[4,3-c]pyrimidin-5-amine]
- pIC50 [1]: 7.84
- pIC50 [2]: 8.31

Structure (SMILES): Cc1nc(C2CC2)ncc1-c1cnc(NCc2c(F)ccc3c2CCO3)n2cnnc12 [Example 8, 8-(2-cyclopropyl-4-methylpyrimidin-5-yl)-N-((5-fluoro-2,3-dihydrobenzofuran-4-yl)methyl)-[1,2,4]triazolo[4,3-c]pyrimidin-5-amine]
- pIC50 [1]: 8.14
- pIC50 [2]: 8.31

Structure (SMILES): Cc1cc(F)ccc1-c1cnc(NCc2c(F)ccc3c2CCO3)n2cnnc12 [Example 165, N-((5-fluoro-2,3-dihydrobenzofuran-4-yl)methyl)-8-(4-fluoro-2-methylphenyl)-[1,2,4]triazolo[4,3-c]pyrimidin-5-amine]
- pIC50 [1]: 8.13
- pIC50 [2]: 8.35

Structure (SMILES): Fc1ccc2c(c1CNc1ncc(-c3cccnc3F)c3nncn13)CCO2 [Example 115, N-((5-fluoro-2,3-dihydrobenzofuran-4-yl)methyl)-8-(2-fluoropyridin-3-yl)-[1,2,4]triazolo[4,3-c]pyrimidin-5-amine]
- pIC50 [1]: 8.16
- pIC50 [2]: 8.33

Structure (SMILES): CS(=O)(=O)c1ccc(-c2cnc(NCc3cccc4c3CCO4)n3cnnc23)cn1 [Example 28, N-((2,3-dihydrobenzofuran-4-yl)methyl)-8-(6-(methylsulfonyl)pyridin-3-yl)-[1,2,4]triazolo[4,3-c]pyrimidin-5-amine]
- pIC50 [1]: 7.56
- pIC50 [2]: 7.95

Structure (SMILES): NC(=O)c1ccccc1-c1cnc(NCc2c(F)ccc3c2CCO3)n2cnnc12 [Example 122, 2-(5-(((5-fluoro-2,3-dihydrobenzofuran-4-yl)methyl)amino)-[1,2,4]triazolo[4,3-c]pyrimidin-8-yl)benzamide]
- pIC50 [1]: 7.36
- pIC50 [2]: 7.72

Structure (SMILES): CN(C)Cc1ccc(-c2cnc(NCc3cccc4occc34)n3cnnc23)cc1 [Example 208, N-(benzofuran-4-ylmethyl)-8-(4-((dimethylamino)methyl)phenyl)-[1,2,4]triazolo[4,3-c]pyrimidin-5-amine]
- pIC50 [1]: 7.90
- pIC50 [2]: 8.21

Structure (SMILES): Cc1ncc(-c2cnc(NCc3c(F)ccc4c3CCO4)n3cnnc23)n1C [Example 245, 8-(1,2-dimethyl-1H-imidazol-5-yl)-N-((5-fluoro-2,3-dihydrobenzofuran-4-yl)methyl)-[1,2,4]triazolo[4,3-c]pyrimidin-5-amine]
- pIC50 [1]: 6.65
- pIC50 [2]: 7.17

Structure (SMILES): COC(=O)N1CCN(c2ccc(-c3cnc(NCc4cccc5c4CCO5)n4cnnc34)cn2)CC1 [Example 97, methyl 4-(5-(5-(((2,3-dihydrobenzofuran-4-yl)methyl)amino)-[1,2,4]triazolo[4,3-c]pyrimidin-8-yl)pyridin-2-yl)piperazine-1-carboxylate]
- pIC50 [1]: 8.07
- pIC50 [2]: 8.21

Structure (SMILES): Cn1cc(-c2cnc(NCc3c(F)ccc4c3CCO4)n3cnnc23)c(C(F)F)n1 [Example 200, 8-(3-(difluoromethyl)-1-methyl-1H-pyrazol-4-yl)-N-((5-fluoro-2,3-dihydrobenzofuran-4-yl)methyl)-[1,2,4]triazolo[4,3-c]pyrimidin-5-amine]
- pIC50 [1]: 8.02
- pIC50 [2]: 8.12

Structure (SMILES): O=C1CCCN1c1cncc(-c2cnc(NCc3cccc4c3CCO4)n3cnnc23)c1 [Example 87, 1-(5-(5-(((2,3-dihydrobenzofuran-4-yl)methyl)amino)-[1,2,4]triazolo[4,3-c]pyrimidin-8-yl)pyridin-3-yl)pyrrolidin-2-one]
- pIC50 [1]: 7.08
- pIC50 [2]: 7.38

Structure (SMILES): Cc1cc(-c2cnc(NCc3cccc4c3CCO4)n3cnnc23)cnc1N1CCNC(=O)C1 [Example 105, 4-(5-(5-(((2,3-dihydrobenzofuran-4-yl)methyl)amino)-[1,2,4]triazolo[4,3-c]pyrimidin-8-yl)-3-methylpyridin-2-yl)piperazin-2-one]
- pIC50 [1]: 7.49
- pIC50 [2]: 7.57

Structure (SMILES): CC(C)n1nccc1-c1cnc(NCc2c(F)ccc3c2CCO3)n2cnnc12 [Example 144, N-((5-fluoro-2,3-dihydrobenzofuran-4-yl)methyl)-8-(1-isopropyl-1H-pyrazol-5-yl)-[1,2,4]triazolo[4,3-c]pyrimidin-5-amine]
- pIC50 [1]: 7.75
- pIC50 [2]: 8.20

Structure (SMILES): CN(C)c1cc(F)c(-c2cnc(NCc3cccc4c3CCO4)n3cnnc23)cn1 [Example 112, N-((2,3-dihydrobenzofuran-4-yl)methyl)-8-(6-(dimethylamino)-4-fluoropyridin-3-yl)-[1,2,4]triazolo[4,3-c]pyrimidin-5-amine]
- pIC50 [1]: 7.75
- pIC50 [2]: 7.75

Structure (SMILES): Cc1cnc(Cl)cc1-c1cnc(NCc2c(F)ccc3c2CCO3)n2cnnc12 [Example 228, 8-(2-chloro-5-methylpyridin-4-yl)-N-((5-fluoro-2,3-dihydrobenzofuran-4-yl)methyl)-[1,2,4]triazolo[4,3-c]pyrimidin-5-amine]
- pIC50 [1]: 8.05
- pIC50 [2]: 8.09

Structure (SMILES): Cc1ccc(-c2cnc(NCc3c(F)ccc4c3CCO4)n3cnnc23)c(C(F)F)n1 [Example 201, 8-(2-(difluoromethyl)-6-methylpyridin-3-yl)-N-((5-fluoro-2,3-dihydrobenzofuran-4-yl)methyl)-[1,2,4]triazolo[4,3-c]pyrimidin-5-amine]
- pIC50 [1]: 8.14
- pIC50 [2]: 8.23

Structure (SMILES): Cc1nc(C(=O)N(C)C)ccc1-c1cnc(NCc2c(F)ccc3c2CCO3)n2cnnc12 [Example 199, 5-(5-(((5-fluoro-2,3-dihydrobenzofuran-4-yl)methyl)amino)-[1,2,4]triazolo[4,3-c]pyrimidin-8-yl)-N,N,6-trimethylpicolinamide]
- pIC50 [1]: 8.14
- pIC50 [2]: 8.38

Structure (SMILES): Clc1ccncc1-c1cnc(NCc2cccc3c2CCO3)n2cnnc12 [Example 50, 8-(4-chloropyridin-3-yl)-N-((2,3-dihydrobenzofuran-4-yl)methyl)-[1,2,4]triazolo[4,3-c]pyrimidin-5-amine]
- pIC50 [1]: 7.39
- pIC50 [2]: 7.72

Structure (SMILES): CCNC(=O)c1ccc(-c2cnc(NCc3cccc4c3CCO4)n3cnnc23)cn1 [Example 114, 5-(5-(((2,3-dihydrobenzofuran-4-yl)methyl)amino)-[1,2,4]triazolo[4,3-c]pyrimidin-8-yl)-N-ethylpicolinamide]
- pIC50 [1]: 7.73
- pIC50 [2]: 7.81
